Read-outs that look alike come from different tables or passages of the source.
Key:
[1] = test system: 20 HIV-1 clinical isolates; experiment: Antiviral assay in PBMCs with HIV-1 clinical isolates (RT endpoint); type: cell-based; conditions: Human immunodeficiency virus 1, PBMC
Experimental: (§1) Antiviral assays using fresh human PBMCs independently infected with a panel of clinical HIV-1 and HIV-2 isolates were performed by Southern Research as a contracted research study and assessed 7 days post-infection using reverse transcriptase (RT) endpoint assay. Antiviral assays using HIV-1 reporter viruses containing patient-derived sequences encoding all of PR and a portion of RT (amino acids 1–313) and conferring resistance to FDA-approved HIV PIs were performed by Monogram Biosciences Inc. (South San Francisco, CA) using their previously described Phenosense assay ([25]).

[2] = test system: two HIV-2 isolates; experiment: Antiviral assay in PBMCs with HIV-2 clinical isolates (RT endpoint); type: cell-based; conditions: Human immunodeficiency virus 2, PBMC, 168 h, 7-day, RT activity
Experimental: as §1

[3] = test system: panel of 49 patient-derived HIV-1 reporter viruses with PI resistance-associated substitutions; type: cell-based; conditions: for isolates with complete loss of activity: of 49 PI-resistant clinical isolates
[4] = test system: HIV-1IIIb; experiment: Two-drug in vitro combination assay in MT-2 cells (MacSynergy II); type: cell-based; conditions: for Combination effect: pairwise combination with GS-9770; for Antagonism volume / Synergy volume: pairwise combination with GS-9770, 99% confidence, MT-2/HIV-1IIIb
Experimental: Anti-HIV-1 assays evaluating the in vitro antiviral effect of two-drug combinations were performed in MT-2 cells as previously described ([26]). Data were normalized to positive and negative controls in each plate and expressed as a percentage of protection from CPE-dependent cell death and analyzed with the MacSynergy II software. Combination data were analyzed at the 99% confidence level, with synergy/antagonism volumes defined as follows: high synergy (>100 µM^2%), moderate synergy (50 to <100 uM^2%), additivity (>−50 to <50 µM^2%), and antagonism (<−50 µM^2%).

[5] = Metabolic stability in human liver microsomes; type: in vitro ADME
[6] = test system: HIV-1 IIIb; experiment: 5-day cytoprotection antiviral assay in MT-4 cells; type: cell-based
[7] = Cytotoxicity in uninfected MT-4 cells; type: cell-based, human; conditions: human, uninfected (mock infected) MT-4 T cells, MT-4 T cell line
Experimental: (§2) Compound cytotoxicity assessment in MT-4 cells, primary CD4+ T lymphocytes, and MDMs was carried out using a protocol identical to the antiviral assay except uninfected cells were used and tested with higher concentration ranges of test compounds. Assessment of cytotoxicity in additional human cell lines (Gal-PC3, Gal-HepG2, HEp-2, Huh-7, MRC-5, HepG2-NTCP, Huh7-Lunet HCV 1b and 2a replicons, NHBE, A549-hACE2) and primary human PBMCs (resting and stimulated with PHA/IL-2) and hepatocytes have been described previously ([19]). For all cytotoxicity assays, the CC50 value for puromycin was determined as a positive internal control and to assess assay sensitivity in each cell type. The effect of tested compounds on cell viability was measured using a CellTiter-Glo readout, performed according to the manufacturer’s recommendations.

[8] = test system: MT-4 T cell line; experiment: Cytotoxicity in uninfected MT-4 cells; type: cell-based, human; conditions: mock infected
Experimental: as §2

[9] = test system: HIV-1 BaL; experiment: p24 production antiviral assay in CD4+ T-lymphocytes; type: cell-based
Description: (§3) Antiviral assays performed in HIV-1BaL infected CD4 +T-lymphocytes and monocyte-derived macrophages (MDMs) have been described previously ([18]). Cell-free supernatants derived from the CD4 +T cell and macrophage cultures were harvested 7- and 12-days post-infection, respectively, and the amount of HIV present was quantified by p24 antigen enzyme-linked immunosorbent assay (ELISA, Perkin Elmer, Waltham, MA) performed according to the manufacturer’s protocol.

[10] = Cytotoxicity in CD4+ T-lymphocytes; type: cell-based; conditions: human, uninfected (mock infected) primary CD4+ T lymphocytes
Experimental: as §2

[11] = test system: HIV-1 BaL; experiment: p24 production antiviral assay in monocyte-derived macrophages; type: cell-based
Description: as §3

[12] = Cytotoxicity in monocyte-derived macrophages; type: cell-based; conditions: human, uninfected (mock infected) monocyte-derived macrophages
Experimental: as §2

[13] = test system: HIV-1LAI wild type and site-directed PR mutants; experiment: microbe, parasite or virus in culture; type: cell-based
[14] = single oral dose co-administered with a pharmacological boosting agent; cited from earlier work
[15] = biological target: recombinant HIV-1 protease (Human immunodeficiency virus type 1 group M subtype B, UniProt P04585); experiment: biochemical
Experimental: For the HIV protease assay, recombinant HIV-1 protease expression, purification, and enzymatic assay using a fluorogenic readout were performed as previously described with some minor changes ([22]). […] After a 20-minute pre-incubation, the enzymatic reaction was initiated by the addition of the fluorogenic substrate to a final concentration of 40 µM and a final volume of 100 µL. The reaction was measured over 20 minutes on a Tecan Infinite M1000 plate reader using excitation and detection wavelengths of 320 nm and 420 nm, respectively.

[16] = test system: HIV-1 mutants resistant to NRTIs, NNRTIs, INSTIs
[17] = Cytotoxicity in Gal-PC3; type: cell-based; conditions: human, Gal-PC3 cells
Experimental: as §2

[18] = Cytotoxicity in Gal-HepG2; type: cell-based; conditions: human, Gal-HepG2 cells
Experimental: as §2

[19] = Cytotoxicity in HEp-2; type: cell-based; conditions: human, HEp-2 cells
Experimental: as §2

[20] = Cytotoxicity in Huh-7; type: cell-based; conditions: human, Huh-7 cells
Experimental: as §2

[21] = Cytotoxicity in MRC-5; type: cell-based; conditions: human, MRC-5 cells
Experimental: as §2

[22] = Cytotoxicity in primary human hepatocytes; type: cell-based
Experimental: as §2

[23] = Cytotoxicity in unstimulated PBMCs; type: cell-based; conditions: human, unstimulated (resting) PBMCs
Experimental: as §2

[24] = Cytotoxicity in stimulated PBMCs; type: cell-based; conditions: human
Experimental: as §2

[25] = Cytotoxicity across human cell types (summary ranges); type: cell-based; conditions: human, human cell lines and primary cells (all cell types tested); across all of the cell types tested; read-out: mean CC50 range
Experimental: as §2

[26] = Human immunodeficiency virus 1, PR L24I M46L A77I V82A
[27] = Human immunodeficiency virus 1, PR L24I M46L I64V A77I V82A
[28] = Human immunodeficiency virus 1, PR M46L A77I V82A
[29] = Human immunodeficiency virus 1, PR V82A
[30] = Human immunodeficiency virus 1, Wild type (WT) HIV-1LAI

`CC(C)CN(C[C@@H](O)[C@H](Cc1ccccc1)NC(=O)O[C@H]1CO[C@H]2OCC[C@H]21)S(=O)(=O)c1ccc(N)cc1` [DRV, darunavir] showed an EC50 ([1]; 168 h, read-out: mean EC50) of 3.2 nM, an EC50 ([1]; read-out: EC50 range) of 0.8 to 9.2 nM and an EC50 [2] of 8.5 nM. The “isolates with complete loss of activity” value [3] was 5.
With `CC(C)(C#Cc1ccc(-c2ccc(Cl)c3c(NS(C)(=O)=O)nn(CC(F)(F)F)c23)c([C@H](Cc2cc(F)cc(F)c2)NC(=O)Cn2nc(C(F)(F)F)c3c2C(F)(F)[C@@H]2C[C@H]32)n1)S(C)(=O)=O` [LEN, lenacapavir] the Combination effect [4] was “Highly synergistic”, the Antagonism volume [4] was −0.6 ± 1.7 µM^2.% and the Synergy volume [4] was 201 ± 111 µM^2.%.
For `Cc1cc(/C=C/C#N)cc(C)c1Nc1ccnc(Nc2ccc(C#N)cc2)n1` [RPV, rilpivirine], the Combination effect [4] was “Highly synergistic”, the Antagonism volume [4] was 0 ± 0 µM^2.% and the Synergy volume [4] was 184 ± 65 µM^2.%.
For `COC(=O)N[C@H](C(=O)N[C@@H](Cc1ccccc1)[C@@H](O)CN(Cc1ccc(-c2ccccn2)cc1)NC(=O)[C@@H](NC(=O)OC)C(C)(C)C)C(C)(C)C` [ATV, atazanavir], the “Eh% (percent predicted hepatic extraction)” value [5] was 63%, the “Predicted CL (predicted human clearance)” value [5] was 13 mL/min/kg and the half-life ([5]; read-out: T½ in the presence of human liver microsomes) was 24 min. For the same molecule, the EC50 ([6]; Human immunodeficiency virus 1, IIIB, T-cell, 120 h) was 11 ± 3 nM, the “SI (CC50/EC50 ratio)” value ([6]; MT-4 T cell line) was 4,700 and the “95% effective concentration (EC95)” value ([6]; calculated from MT-4/HIV-1IIIb EC50 and Hill coefficient) was 19.5 nM. The CC50 [7] was > 50000 nM, the CC50 [8] was 51000 ± 8000 nM and the “SI (CC50/EC50 ratio)” value [9] was >12,000. The EC50 ([9]; Human immunodeficiency virus 1, T-lymphocyte, HIV-1BaL infected) was 4.3 ± 1.9 nM, the CC50 [10] was > 50000 nM and the “SI (CC50/EC50 ratio)” value [11] was >3,100. The EC50 ([11]; Human immunodeficiency virus 1, Macrophage, HIV-1BaL infected) was 16 ± 12 nM, the CC50 [12] was > 50000 nM and the “data points with fold change in EC50 above limit” value [3] was “five”. For the same molecule, the “mean fold change (FC) in EC50 vs wild-type HIV-1 (geometric mean)” value ([3]; 49 PI-resistant reporter viruses) was 9.1 fold, the “isolates with complete loss of activity” value [3] was 3 and the “isolates with greater than 10-fold loss in susceptibility” value ([3]; of 49 isolates, cutoff 10-fold) was 16. The EC50 [13, 26] was 4.2 ± 0.8 nM, the EC50 [13, 27] was 11.7 ± 1.4 nM and the EC50 [13, 28] was 6.9 ± 1.8 nM. For the same molecule, the EC50 [13, 29] was 7.6 ± 3.3 nM, the EC50 [13, 30] was 5.7 ± 3.6 nM and the “fold-change relative to WT” value ([13]; PR L24I M46L A77I V82A) was 0.7 fold. For the same molecule, the “fold-change relative to WT” value ([13]; PR L24I M46L I64V A77I V82A) was 2.1 fold, the “fold-change relative to WT” value ([13]; PR M46L A77I V82A) was 1.2 fold and the “fold-change relative to WT” value ([13]; PR V82A) was 1.3 fold. For the same molecule, the “fold-change relative to WT” value ([13]; Wild type (WT) HIV-1LAI) was 1.0 fold, the “plasma half-life in humans” value [14] was 516 min and the Ki [15] was 0.023 nM.
In the case of `CC(C)OC(=O)[C@H](C)N[P@](=O)(CO[C@H](C)Cn1cnc2c(N)ncnc21)Oc1ccccc1` [TAF, tenofovir alafenamide], the Combination effect [4] is reported as “Highly synergistic”, the Antagonism volume [4] is reported as −4 ± 7 µM^2.% and the Synergy volume [4] is reported as 166 ± 51 µM^2.%.
In the case of `O=C(NCc1c(F)cc(F)cc1F)c1cn2c(c(O)c1=O)C(=O)N1[C@H]3CC[C@H](C3)O[C@@H]1C2` [BIC, bictegravir], the Combination effect [4] is reported as “Highly synergistic”, the Antagonism volume [4] is reported as −11 ± 13 µM^2.% and the Synergy volume [4] is reported as 156 ± 49 µM^2.%.
With `COc1cc2c(cc1Cc1cccc(Cl)c1F)c(=O)c(C(=O)O)cn2[C@H](CO)C(C)C` [EVG, elvitegravir] the “Fold resistance (mutant/wildtype EC50 ratio)” value ([16]; E92Q+N155H) was >50, the “Fold resistance (mutant/wildtype EC50 ratio)” value ([16]; E138K+Q148K) was >50 and the “Fold resistance (mutant/wildtype EC50 ratio)” value ([16]; G140S+Q148R) was >50. For the same molecule, the “Fold resistance (mutant/wildtype EC50 ratio)” value ([16]; Q148+N155H) was >50.
In the case of `Nc1nc(=O)n([C@@H]2CS[C@H](CO)O2)cc1F` [FTC, emtricitabine], the Combination effect [4] is reported as “Highly synergistic”, the Antagonism volume [4] is reported as −8 ± 11 µM^2.% and the Synergy volume [4] is reported as 139 ± 24 µM^2.%. The “Fold resistance (mutant/wildtype EC50 ratio)” value ([16]; 6TAMs) was 23 ± 21, the “Fold resistance (mutant/wildtype EC50 ratio)” value ([16]; K65R) was 12 ± 6 and the “Fold resistance (mutant/wildtype EC50 ratio)” value ([16]; M184V) was >141.
`O=C1Nc2ccc(Cl)cc2[C@@](C#CC2CC2)(C(F)(F)F)O1` [EFV, efavirenz] gave an EC50 [13, 26] of 1.1 ± 0.1 nM, an EC50 [13, 27] of 1 ± 0.2 nM and an EC50 [13, 28] of 1 ± 0.2 nM. For the same molecule, the EC50 [13, 29] was 1.2 ± 0.6 nM, the EC50 [13, 30] was 1.3 ± 0.7 nM and the “fold-change relative to WT” value ([13]; PR L24I M46L A77I V82A) was 0.9 fold. The “fold-change relative to WT” value ([13]; PR L24I M46L I64V A77I V82A) was 0.8 fold, the “fold-change relative to WT” value ([13]; PR M46L A77I V82A) was 0.8 fold and the “fold-change relative to WT” value ([13]; PR V82A) was 1.0 fold. The “fold-change relative to WT” value ([13]; Wild type (WT) HIV-1LAI) was 1.0 fold, the “Fold resistance (mutant/wildtype EC50 ratio)” value ([16]; K103N) was 14 ± 12 and the “Fold resistance (mutant/wildtype EC50 ratio)” value ([16]; K103N+Y181C) was 11 ± 5. The “Fold resistance (mutant/wildtype EC50 ratio)” value ([16]; L100I+K103N) was >30, the “Fold resistance (mutant/wildtype EC50 ratio)” value ([16]; Y181C) was 3.5 ± 0.6 and the “Fold resistance (mutant/wildtype EC50 ratio)” value ([16]; Y188L) was >30.
`COc1ccc(C[C@H](N)C(=O)N[C@H]2[C@@H](O)[C@H](n3cnc4c(N(C)C)ncnc43)O[C@@H]2CO)cc1` [Puromycin, puromycin] gave a CC50 [17] of 450 ± 170 nM, a CC50 [18] of 1400 ± 800 nM and a CC50 [19] of 600 ± 300 nM. The CC50 [20] was 800 ± 700 nM, the CC50 [21] was 310 ± 200 nM and the CC50 [22] was 1600 ± 200 nM. It also gave a CC50 [23] of 540 ± 210 nM, a CC50 [24] of 800 ± 150 nM and a CC50 [25] of 310 to 1600 nM.

From paper PMC10989020, “Preclinical characterization of a non-peptidomimetic HIV protease inhibitor with improved metabolic stability” (Antimicrobial Agents and Chemotherapy, 2024)
